Assay results taken from US12440550B2 (priority 2015, dated 2025).

What follows are compounds tested on Calu-3 cells.

| SMILES | cell lysis [%] |
| --- | --- |
| CCCCCCCCCCCCO[C@@H]1O[C@H](CO)[C@@H](O[C@H]2O[C@H](CO)[C@@H](O)[C@H](O)[C@H]2O)[C@H](O)[C@H]1O [nDMPS, N-dodecyl-β-D-maltopyranoside, reference compound] | > 80 |

Test system: Calu-3 cells
Assay type: cell-based, human
Remark: another data set of the same source

| SMILES | increase in transduction efficiency with respect to virus formulated in saline (factor) |
| --- | --- |
| OC[C@H]1O[C@H](OC[C@H]2O[C@H](O[C@]3(CO)O[C@H](CO)[C@@H](O)[C@@H]3O)[C@H](O)[C@@H](O)[C@@H]2O)[C@H](O)[C@@H](O)[C@H]1O [raffinose] | did not significantly enhance transduction |
| OC[C@H]1O[C@@](CO)(O[C@H]2O[C@H](CO)[C@@H](O)[C@H](O)[C@H]2O)[C@@H](O[C@H]2O[C@H](CO)[C@@H](O)[C@H](O)[C@H]2O)[C@@H]1O [melezitose] | 1.51 |
| OC[C@H]1O[C@@](CO)(O[C@H]2O[C@H](CO)[C@@H](O)[C@H](O)[C@H]2O)[C@@H](O)[C@@H]1O [sucrose] | 1.96 |
| OC[C@@H](O)[C@@H](O)[C@H](O)[C@H](O)CO [mannitol] | 1.61 |
| OC[C@@H](O)[C@@H](O)[C@H](O)[C@@H](O)CO [sorbitol] | did not significantly enhance transduction |
| CCCCCCCCCCCCO[C@@H]1O[C@H](CO)[C@@H](O[C@H]2O[C@H](CO)[C@@H](O)[C@H](O)[C@H]2O)[C@H](O)[C@H]1O [nDMPS, N-dodecyl-β-D-maltopyranoside, reference compound] | second most efficacious formulation |
